Two compounds from paper PMC6886544 can be followed below.

One data set has as its target BLK (Homo sapiens, UniProt P51451). Description: SelectScreen kinase profiling, BLK. The class given is biochemical. The conditions noted are these: mean ± SD of one measurement in duplicates. How it is done: (§1) Kinase profiling of compound 17a at a concentration of 1 µM generated with the SelectScreen® Profiling Service from Life Technologies.
(§2) Figure S2. Kinase profiling of compound 17a, Illustration as waterfall plot. 9 Kinases harboring a Cysteine isostructural to Cys797 in EGFR are highlighted
(§3) Kinase % inhibition Kinase % inhibition […]
(§4) aValues are the mean ± SD of one measurement in duplicates; bKinases harboring a Cysteine isostructural to Cys797 […]
(§5) (1 picture or pasted object on this page, not shown here)

The target in another data set is YES1 (Homo sapiens, UniProt P07947). Nature of the data set: SelectScreen kinase profiling, YES1. It is filed as biochemical. Conditions: mean ± SD of one measurement in duplicates. How it is done: as §1, §2, §3, §4, §5
Chain of YES1 (P07947 whole entry): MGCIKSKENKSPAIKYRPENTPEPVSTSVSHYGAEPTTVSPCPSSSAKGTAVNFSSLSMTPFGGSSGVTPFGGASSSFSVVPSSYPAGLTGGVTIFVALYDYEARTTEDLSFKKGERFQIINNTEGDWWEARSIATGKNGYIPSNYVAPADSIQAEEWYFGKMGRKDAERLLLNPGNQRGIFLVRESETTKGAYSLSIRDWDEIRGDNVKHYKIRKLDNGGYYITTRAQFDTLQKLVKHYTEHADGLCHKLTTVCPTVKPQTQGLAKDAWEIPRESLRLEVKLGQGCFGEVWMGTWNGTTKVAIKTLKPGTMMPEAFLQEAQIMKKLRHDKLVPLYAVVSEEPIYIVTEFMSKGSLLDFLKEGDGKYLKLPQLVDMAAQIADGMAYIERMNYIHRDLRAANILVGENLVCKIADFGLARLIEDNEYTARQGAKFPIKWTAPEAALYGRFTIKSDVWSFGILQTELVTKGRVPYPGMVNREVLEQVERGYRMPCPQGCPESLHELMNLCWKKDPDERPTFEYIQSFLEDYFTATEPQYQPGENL
For another data set, the target named is FGR (Homo sapiens, UniProt P09769). Description: SelectScreen kinase profiling, FGR. The class given is biochemical. The conditions noted are these: mean ± SD of one measurement in duplicates. The protocol:
as §1, §2, §3, §4, §5

A further data set concerns the target EGFR-T790M (Homo sapiens, UniProt P00533, T790M). Nature of the data set: SelectScreen kinase profiling, EGFR-T790M. The conditions noted are these: mean ± SD of one measurement in duplicates. The class given is biochemical. The protocol:
as §1, §2, §3, §4, §5

The target of another data set is ACVR1B (Homo sapiens, UniProt P36896). Description: SelectScreen kinase profiling, ACVR1B. It is filed as biochemical. Conditions: mean ± SD of one measurement in duplicates. How it is done: as §1, §2, §3, §4, §5
Chain of ACVR1B (P36896 24-505): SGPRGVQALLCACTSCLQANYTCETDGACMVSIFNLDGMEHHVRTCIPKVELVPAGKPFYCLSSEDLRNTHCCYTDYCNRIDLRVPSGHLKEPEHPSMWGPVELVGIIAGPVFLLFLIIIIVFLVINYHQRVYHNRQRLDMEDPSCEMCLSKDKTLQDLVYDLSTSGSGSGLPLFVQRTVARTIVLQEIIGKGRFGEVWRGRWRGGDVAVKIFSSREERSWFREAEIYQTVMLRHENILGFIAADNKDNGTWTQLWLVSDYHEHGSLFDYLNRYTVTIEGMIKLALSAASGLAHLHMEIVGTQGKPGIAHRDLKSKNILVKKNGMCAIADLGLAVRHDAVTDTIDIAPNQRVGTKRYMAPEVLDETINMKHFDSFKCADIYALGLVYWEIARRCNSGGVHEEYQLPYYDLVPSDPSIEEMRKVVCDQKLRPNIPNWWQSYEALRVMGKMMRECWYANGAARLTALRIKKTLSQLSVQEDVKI
For the next data set, the target named is EGFR-L858R (Homo sapiens, UniProt P00533, L858R). Description: SelectScreen kinase profiling, EGFR-L858R. Conditions: mean ± SD of one measurement in duplicates. The class given is biochemical. The protocol: as §1, §2, §3, §4, §5
The target of another data set is TXK (Homo sapiens, UniProt P42681). Description: SelectScreen kinase profiling, TXK. It is filed as biochemical. The conditions noted are these: mean ± SD of one measurement in duplicates. How it is done:
as §1, §2, §3, §4, §5

For another data set, the target named is EPHA1 (Homo sapiens, UniProt P21709). Description: SelectScreen kinase profiling, EPHA1. It is filed as biochemical. The conditions noted are these: mean ± SD of one measurement in duplicates. How it is done: as §1, §2, §3, §4, §5
Chain of EPHA1 (P21709 26-976): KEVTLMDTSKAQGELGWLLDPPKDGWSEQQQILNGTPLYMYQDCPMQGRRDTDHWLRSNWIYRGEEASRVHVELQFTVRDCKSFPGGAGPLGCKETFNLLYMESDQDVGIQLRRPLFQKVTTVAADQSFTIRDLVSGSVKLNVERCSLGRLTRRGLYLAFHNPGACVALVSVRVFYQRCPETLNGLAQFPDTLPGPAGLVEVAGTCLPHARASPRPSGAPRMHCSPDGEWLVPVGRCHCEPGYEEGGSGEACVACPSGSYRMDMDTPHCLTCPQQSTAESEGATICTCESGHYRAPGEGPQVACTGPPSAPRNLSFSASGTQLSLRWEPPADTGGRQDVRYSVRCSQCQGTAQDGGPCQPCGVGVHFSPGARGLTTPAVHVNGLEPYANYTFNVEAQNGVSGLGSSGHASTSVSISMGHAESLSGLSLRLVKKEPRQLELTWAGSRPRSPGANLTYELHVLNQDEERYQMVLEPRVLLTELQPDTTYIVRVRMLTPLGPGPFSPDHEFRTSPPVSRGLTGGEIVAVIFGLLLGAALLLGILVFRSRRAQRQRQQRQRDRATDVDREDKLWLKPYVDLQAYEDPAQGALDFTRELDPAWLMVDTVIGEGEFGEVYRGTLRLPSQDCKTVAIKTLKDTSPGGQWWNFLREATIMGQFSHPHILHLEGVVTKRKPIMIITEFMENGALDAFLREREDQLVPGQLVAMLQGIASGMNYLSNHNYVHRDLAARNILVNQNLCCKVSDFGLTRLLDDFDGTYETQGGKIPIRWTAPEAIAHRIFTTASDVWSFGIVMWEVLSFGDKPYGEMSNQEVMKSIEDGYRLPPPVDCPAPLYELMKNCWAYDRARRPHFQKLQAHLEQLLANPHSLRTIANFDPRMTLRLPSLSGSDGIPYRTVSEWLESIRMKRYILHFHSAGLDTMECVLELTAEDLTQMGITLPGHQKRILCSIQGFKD
The target of another data set is FGFR1 (Homo sapiens, UniProt P11362). Description: SelectScreen kinase profiling, FGFR1. It is filed as biochemical. Conditions: mean ± SD of one measurement in duplicates. How it is done: as §1, §2, §3, §4, §5
Chain of FGFR1 (P11362 22-822): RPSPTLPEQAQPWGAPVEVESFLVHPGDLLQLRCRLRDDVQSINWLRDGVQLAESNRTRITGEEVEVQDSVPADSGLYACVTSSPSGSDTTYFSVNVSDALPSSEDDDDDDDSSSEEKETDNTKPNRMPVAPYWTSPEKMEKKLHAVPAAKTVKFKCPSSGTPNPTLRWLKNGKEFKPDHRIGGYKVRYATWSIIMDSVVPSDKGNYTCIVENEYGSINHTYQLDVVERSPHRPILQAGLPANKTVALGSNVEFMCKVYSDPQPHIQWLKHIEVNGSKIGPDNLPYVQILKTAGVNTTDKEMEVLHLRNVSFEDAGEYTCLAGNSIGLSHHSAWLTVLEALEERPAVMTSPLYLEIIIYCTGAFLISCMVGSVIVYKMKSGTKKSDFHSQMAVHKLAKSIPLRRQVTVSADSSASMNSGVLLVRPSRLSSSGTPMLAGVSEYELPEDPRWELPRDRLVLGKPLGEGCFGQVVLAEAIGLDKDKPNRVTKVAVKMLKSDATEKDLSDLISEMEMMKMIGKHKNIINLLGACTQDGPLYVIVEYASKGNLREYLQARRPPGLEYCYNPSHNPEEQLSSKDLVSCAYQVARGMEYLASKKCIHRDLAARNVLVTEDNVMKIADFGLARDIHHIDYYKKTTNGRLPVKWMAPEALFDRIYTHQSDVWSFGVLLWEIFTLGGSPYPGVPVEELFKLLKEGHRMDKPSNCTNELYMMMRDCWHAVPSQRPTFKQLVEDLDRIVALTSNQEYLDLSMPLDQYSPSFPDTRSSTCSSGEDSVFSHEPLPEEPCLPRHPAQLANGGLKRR
Another data set can be described thus: Plasma stability, human. Conditions: 5 µM, 1 h, 37 °C. It is filed as in vitro ADME.
A further data set can be described thus: Plasma stability, mouse. The class given is in vitro ADME. The conditions noted are these: 5 µM, 1 h, 37 °C.
Data set [1] can be described thus: PAMPA (parallel artificial membrane permeability assay). It is filed as in vitro ADME. The conditions noted are these: pH 7.4, 500 µM, 16 hours. How it is done: masses and 0.02 Da for fragment ions. FDR was adjusted to 1% on peptide spectrum match […]
Microsomal stability (phase I) assay.
Metabolic stability under oxidative conditions was measured in liver microsomes from different species by LC/MS-based measuring of depletion of compound at a concentration of 3 µM over time up to 50 minutes (HLM) or 60 minutes (MLM) at 37 °C. Based on the compound half-life t1/2, the in vitro intrinsic clearance CLint was calculated.
Plasma stability was measured by LC/MS-based determination of the percentage of remaining compounds at a concentration of 5 µM after incubation in plasma obtained from different species […]
Assessment of plasma protein binding was measured by equilibrium dialysis by incubating plasma with the compound of interest at a concentration of 5 µM for 6 h at 37 °C followed by LC/MS-based determination of final compound concentrations.
PAMPA (Parallel artificial membrane permeability assay). […]
temperature in a wet chamber, the optical density of the solution in the receiver well was measured between 250 and 500 nm in intervals of 10 nm. The percent flux was calculated from […]
(PAMPA measures passive passage across an artificial lipid membrane.)

The nature of data set [2]: In vivo pharmacokinetics in mice. How it is done:
In vivo pharmacokinetics.
To determine the pharmacokinetics of 19h, totally 36 male RjOrl:SWISS (CD1) mice, age 8−10 weeks, body weight (bw) between 29 and 31 g, were purchased from Janvier, Saint-Berthevin Cedex, France. Mice were fed ad libitum with Allein-Futter für Ratten-/Mäusehaltung from Sniff Special Diets GmbH, Germany. They had free access to water and were kept in a 12 h day/night rhythm. All experiments were approved by the local authorities. Pharmacokinetics were studied for the oral (PO), intraperitoneal (IP), and intravenous (IV) route of administration. For the oral and […]
intraperitoneal routes, a stock solution of 2 mg/mL of 19h in a solution consisting of 10% of DMSO and to 90% of an aqueous solution of 30% 2-hydroxypropyl-β-cyclodextrin was prepared. To reach doses of 20 mg/kg bw, 300 μL were administered per 30 g of mouse bw. For the intravenous route of administration, a 2 mg/mL DMSO solution was prepared and 30 μL were applied to a 30 g mouse to reach a concentration of 2 mg/kg bw. Mice were sacrificed 5, 15, 45, and 135 min after administration of the test compound, and approximately 100 μL of blood was taken from the left heart chamber. Three mice were analyzed per time point and route of administration (PO, IP and IV), respectively. Immediately after sampling, blood was centrifuged at 16200g for 10 min at 4 °C and plasma was stored at -80 °C until LC/MS analysis of 19h. Prior to LC-MS/MS analysis, plasma proteins were precipitated with acetonitrile containing an internal standard, and samples were filtered. A calibration curve was obtained from spiked blank plasma samples. 19h was measured using a Shimadzu UPLC system connected to a QTrap 4000 hybrid triple quadrupole/linear ion trap mass spectrometer (AB Sciex). The regression equation of the calibration curve was used to calculate plasma concentrations. Pharmacokinetic parameters were calculated using the PKSolver software2.

The mark [3] stands for this setting: male, RjOrl:SWISS (CD1), mouse, plasma, IP 20 mg kg-1.
Where [4] appears, read: male, RjOrl:SWISS (CD1), mouse, plasma, IP 20 mg kg^–1.
Setting [5] is: male, RjOrl:SWISS (CD1), mouse, plasma, IV 2 mg kg-1.
Where [6] appears, read: male, RjOrl:SWISS (CD1), mouse, plasma, PO 20 mg kg-1.

Several values for one entry are separate records, joined by “and”; a condition that tells them apart may be missing. Equal entries are not always repeated.

Chain of EGFR-T790M (P00533 25-1210 T790M): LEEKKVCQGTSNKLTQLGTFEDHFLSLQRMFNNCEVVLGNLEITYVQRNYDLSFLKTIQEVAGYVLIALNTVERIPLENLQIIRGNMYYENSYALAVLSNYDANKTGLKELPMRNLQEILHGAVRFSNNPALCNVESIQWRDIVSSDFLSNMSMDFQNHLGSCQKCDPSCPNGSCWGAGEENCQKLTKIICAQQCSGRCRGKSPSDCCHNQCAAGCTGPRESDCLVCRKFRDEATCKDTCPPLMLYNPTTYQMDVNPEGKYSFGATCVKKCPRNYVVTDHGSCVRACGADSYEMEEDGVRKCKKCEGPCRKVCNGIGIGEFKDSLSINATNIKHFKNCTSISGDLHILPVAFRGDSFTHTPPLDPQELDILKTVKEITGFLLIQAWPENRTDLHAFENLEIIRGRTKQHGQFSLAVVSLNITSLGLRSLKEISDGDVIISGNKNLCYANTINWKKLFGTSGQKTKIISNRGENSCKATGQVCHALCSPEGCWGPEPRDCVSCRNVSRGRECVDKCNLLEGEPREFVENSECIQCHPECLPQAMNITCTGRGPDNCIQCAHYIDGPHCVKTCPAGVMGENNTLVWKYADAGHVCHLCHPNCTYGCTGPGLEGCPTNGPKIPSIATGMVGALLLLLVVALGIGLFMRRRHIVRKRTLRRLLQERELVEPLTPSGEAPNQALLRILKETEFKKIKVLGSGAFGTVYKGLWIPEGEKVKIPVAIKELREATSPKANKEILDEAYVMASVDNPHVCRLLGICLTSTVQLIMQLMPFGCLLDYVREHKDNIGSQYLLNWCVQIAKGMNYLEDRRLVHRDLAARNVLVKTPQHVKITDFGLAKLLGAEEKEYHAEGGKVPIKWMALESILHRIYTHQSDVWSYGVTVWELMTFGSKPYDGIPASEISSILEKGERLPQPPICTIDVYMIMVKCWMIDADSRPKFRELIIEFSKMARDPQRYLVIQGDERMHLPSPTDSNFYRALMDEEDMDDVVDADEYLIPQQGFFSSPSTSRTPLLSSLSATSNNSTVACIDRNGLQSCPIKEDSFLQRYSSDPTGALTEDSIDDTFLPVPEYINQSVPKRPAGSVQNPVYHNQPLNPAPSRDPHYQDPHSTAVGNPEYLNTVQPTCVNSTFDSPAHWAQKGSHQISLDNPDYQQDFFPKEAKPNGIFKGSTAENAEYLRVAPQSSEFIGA
Chain of FGR (P09769 whole entry): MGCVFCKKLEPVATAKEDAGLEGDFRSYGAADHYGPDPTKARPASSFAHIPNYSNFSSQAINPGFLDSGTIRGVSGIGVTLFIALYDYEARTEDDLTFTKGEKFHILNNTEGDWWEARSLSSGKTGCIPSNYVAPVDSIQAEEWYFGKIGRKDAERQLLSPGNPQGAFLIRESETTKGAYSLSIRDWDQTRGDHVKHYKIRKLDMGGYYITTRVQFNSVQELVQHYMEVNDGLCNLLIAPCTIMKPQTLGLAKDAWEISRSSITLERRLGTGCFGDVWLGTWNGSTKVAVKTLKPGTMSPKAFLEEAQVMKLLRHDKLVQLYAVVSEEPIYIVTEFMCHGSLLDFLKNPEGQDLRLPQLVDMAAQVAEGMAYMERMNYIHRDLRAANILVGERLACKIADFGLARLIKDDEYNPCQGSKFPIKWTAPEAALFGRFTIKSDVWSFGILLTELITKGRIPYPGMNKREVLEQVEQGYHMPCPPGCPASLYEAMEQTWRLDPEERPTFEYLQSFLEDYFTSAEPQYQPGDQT
Chain of TXK (P42681 whole entry): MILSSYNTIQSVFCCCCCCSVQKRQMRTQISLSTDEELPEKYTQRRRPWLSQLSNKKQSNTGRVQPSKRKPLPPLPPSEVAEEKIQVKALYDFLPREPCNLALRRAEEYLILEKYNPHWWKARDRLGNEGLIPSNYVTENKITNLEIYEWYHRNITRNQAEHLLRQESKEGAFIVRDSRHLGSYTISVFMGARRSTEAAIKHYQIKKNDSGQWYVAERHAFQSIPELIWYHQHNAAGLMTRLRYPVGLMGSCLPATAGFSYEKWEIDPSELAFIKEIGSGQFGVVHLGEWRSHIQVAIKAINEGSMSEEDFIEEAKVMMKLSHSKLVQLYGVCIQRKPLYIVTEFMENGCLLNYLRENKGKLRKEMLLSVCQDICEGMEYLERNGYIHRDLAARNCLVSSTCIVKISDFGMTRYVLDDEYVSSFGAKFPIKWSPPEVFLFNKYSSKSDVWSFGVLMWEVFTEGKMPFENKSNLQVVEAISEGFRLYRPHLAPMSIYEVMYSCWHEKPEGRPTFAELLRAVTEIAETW

For orientation: inhibition means the share of the control response that was lost under treatment. Lower therefore signals a weak effect. With `C=CC(=O)Nc1cccc(-c2c(-c3ccc(CN4CCN(C)CC4)cc3)[nH]c3ncnc(OC)c23)c1` [Compound 17a], the inhibition at 1 µM on BLK came out at 99 ± 1%; against YES1 it was 93 ± 1%; against FGR, 92 ± 1%; on EGFR-T790M, 89 ± 2%; against ACVR1B, 89%; on EGFR-L858R, 89 ± 6%. For the same compound, the inhibition at 1 µM on TXK worked out at 77%; on EPHA1, 72 ± 2%; at FGFR1 it was 72 ± 4%.
As a reminder, the AUC(0-t) is the area under the concentration-time curve up to a stated or last time point. Read a low AUC(0-t) as less exposure. As a reminder, the Cmax is the highest concentration seen after dosing. By AUC is commonly meant the area under the concentration-time curve, a measure of exposure. Low values mean low exposure, high ones high exposure. The clearance is a measure of how efficiently the substance is removed, as volume per time. A low value points to inefficient removal. The term half-life denotes the time needed for the level to fall by half in the phase considered. Higher therefore signals slow loss. Turning to `C=CC(=O)Nc1cccc(-c2c(-c3ccc(N4CCN(C)CC4)cc3)[nH]c3ncnc(OCC(C)C)c23)c1` [Compound 19h], the Plasma stability in the data set “Plasma stability, human” was 99 %remain and 100 %remain; in the data set “Plasma stability, mouse”, 100 %remain. This compound also had a PAMPA flux in data set [1] of 88%. The F0-t in data set [2] (IP 20 mg kg-1) was 258%; in [2] (PO 20 mg kg-1), 9%. Besides, in data set [2] (IP 20 mg kg-1), the t1/2 is recorded as 1.2 h. For the same compound, the “Cmax, free” value in [2] (IP 20 mg kg^–1) was determined as 0.012 µM. In addition, the “time blood plasma concentration maintained above in vitro EC50 in H1975 cells” value in data set [2] (after both IP and PO) is reported as “more than two hours”. The AUC(0-t) in data set [2] (setting [3]) worked out at 2870 ng·h/mL; in [2] (setting [5]), 111 ng·h/mL; in data set [2] (setting [6]), 101 ng·h/mL. Moreover, the Cmax in data set [2] (setting [3]) worked out at 1770 ng/mL; in data set [2] (setting [4]), 3.5 µM; in data set [2] (setting [6]), 56 ng/mL. For the same compound, in [2] (setting [4]), the exposure (AUC) is 8.6 ng·h/mL. The same compound yielded a C0 in [2] (setting [5]) of 258 ng/mL. This compound also showed a clearance in data set [2] (setting [5]) of 250 mL/min/kg. Moreover, in data set [2] (male, RjOrl:SWISS (CD1), mouse, plasma, IV 2 mg kg-1, read-out: Vss), the Vd turned out to be 16 L/kg. Besides, the half-life in [2] (male, RjOrl:SWISS (CD1), mouse, plasma, ip, 20 mg/kg, IP 20 mg kg-1) is 1.21 h; in data set [2] (male, RjOrl:SWISS (CD1), mouse, plasma, iv, 2 mg/kg, IV 2 mg kg-1), 0.89 h.
